According to patent publication US12590066B2, “Fused-heterocyclyl-carbonohydrazonoyl dicyanide compounds and use thereof” (KOREA INSTITUTE OF SCIENCE AND TECHNOLOGY, priority 2020, dated 2026):

Experiments:
tau protein = molecular target: T1, tau protein (Homo sapiens, UniProt P10636); assay: Tau-BiFC cell model, inhibition of Forskolin-induced tau protein aggregation; type: cell-based; settings: Forskolin 30 μM, 48 hours; for Tau BiFC in cells Response (% @10 μM): 10 μM compound, Forskolin-only group = 100% tau protein-aggregated state; for IC50: tau-BiFC cells
T1 construct: BiFC fluorescent-protein fragments (type and halves not specified); expressed in transfected cells
T1 sequence (P10636 1-441 isoform P10636-8): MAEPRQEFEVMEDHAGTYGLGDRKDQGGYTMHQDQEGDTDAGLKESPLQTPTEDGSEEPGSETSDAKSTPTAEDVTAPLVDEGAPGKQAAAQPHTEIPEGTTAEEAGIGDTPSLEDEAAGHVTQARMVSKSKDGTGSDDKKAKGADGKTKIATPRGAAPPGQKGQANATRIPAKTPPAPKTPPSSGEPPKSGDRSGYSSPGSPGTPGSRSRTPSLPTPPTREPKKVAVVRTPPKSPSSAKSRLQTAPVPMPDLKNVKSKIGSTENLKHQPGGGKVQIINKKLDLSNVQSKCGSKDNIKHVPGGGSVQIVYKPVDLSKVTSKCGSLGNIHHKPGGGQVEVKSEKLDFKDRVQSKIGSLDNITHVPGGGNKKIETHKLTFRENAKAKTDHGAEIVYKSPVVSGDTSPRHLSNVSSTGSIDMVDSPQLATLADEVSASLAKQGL
Method in brief: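 Tau-BiFC cells co-treated 48 h with 30 μM forskolin and compounds (1, 3, 10 μM screen; 0.01–30 μM dose-response). BiFC fluorescence normalized to forskolin-only (100% aggregation) minus untreated gives aggregation inhibition and IC50; viability as Hoechst-stained nuclei count relative to forskolin-only.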

CYP2D6 = molecular target: T2, CYP2D6 (Homo sapiens, UniProt P10635); assay: Inhibitory effect on CYP coenzyme activity, human liver microsomes; type: in vitro ADME; settings: 10 μM compound, human liver microsomes 0.25 mg/mL, substrate dextromethorphan, 15 minutes
T2 construct: human liver microsomes (0.25 mg/mL); from tissue; host or cells: human liver microsomes
T2 sequence (P10635 whole entry): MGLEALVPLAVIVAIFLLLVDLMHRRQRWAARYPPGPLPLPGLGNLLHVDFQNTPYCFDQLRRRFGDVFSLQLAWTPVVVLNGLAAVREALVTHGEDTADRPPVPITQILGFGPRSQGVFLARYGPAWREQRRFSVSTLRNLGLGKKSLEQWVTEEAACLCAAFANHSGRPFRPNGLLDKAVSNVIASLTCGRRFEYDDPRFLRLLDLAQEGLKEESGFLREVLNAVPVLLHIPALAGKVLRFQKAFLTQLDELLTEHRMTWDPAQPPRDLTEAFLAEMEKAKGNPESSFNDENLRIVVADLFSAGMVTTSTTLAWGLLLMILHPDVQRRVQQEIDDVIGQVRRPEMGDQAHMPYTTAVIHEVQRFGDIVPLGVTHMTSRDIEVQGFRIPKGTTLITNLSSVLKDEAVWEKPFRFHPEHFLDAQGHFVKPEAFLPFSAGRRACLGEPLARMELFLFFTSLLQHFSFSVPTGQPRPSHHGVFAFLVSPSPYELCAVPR
Method in brief: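 Activity (% of vehicle control) from LC-MS/MS MRM quantitation of substrate metabolites. HLM 0.25 mg/mL, pH 7.4 phosphate, cocktail of phenacetin 50 μM, diclofenac 10 μM, S-mephenytoin 100 μM, dextromethorphan 5 μM, midazolam 2.5 μM; test compound 10 μM; 37 °C, 5 min preincubation plus 15 min with NADPH system.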

For `CC(C)n1c(=O)n(C(C)C)c2ncc(NN=C(C#N)C#N)cc21` [Compound 34, (1,3-diisopropyl-2-oxo-2,3-dihydro-1H-imidazo[4,5-b]pyridin-6-yl)carbonohydrazonoyl dicyanide], the “Tau BiFC in cells Response (% @10 μM)” value (tau protein) was −45%, the IC50 (tau protein) was 50 nM and the “CYP2D6 coenzyme activity (%) with respect to control group not treated” value (CYP2D6) was 99.1%.

With `Cn1ccc2ccc(NN=C(C#N)C#N)cc2c1=O` [Compound 2, (2-methyl-1-oxo-1,2-dihydroisoquinolin-7-yl)carbonohydrazonoyl dicyanide] the “Tau BiFC in cells Response (% @10 μM)” value (tau protein) was 0% and the “CYP2D6 coenzyme activity (%) with respect to control group not treated” value (CYP2D6) was 94.3%.

`Cn1c(=O)n(C)c2c(Cl)cc(NN=C(C#N)C#N)cc21` [Compound 11, (7-chloro-1,3-dimethyl-2-oxo-2,3-dihydro-1H-benzo[d]imidazol-5-yl)carbonohydrazonoyl dicyanide] was tested, and the “Tau BiFC in cells Response (% @10 μM)” value (tau protein) was 0%, the IC50 (tau protein) was 100 nM and the “CYP2D6 coenzyme activity (%) with respect to control group not treated” value (CYP2D6) was over 100%.

For `CC(C)n1c(=O)oc2ccc(NN=C(C#N)C#N)cc21` [Compound 29, (3-isopropyl-2-oxo-2,3-dihydrobenzo[d]oxazol-5-yl)carbonohydrazonoyl dicyanide], the “Tau BiFC in cells Response (% @10 μM)” value (tau protein) was −31%, the IC50 (tau protein) was 70 nM and the “CYP2D6 coenzyme activity (%) with respect to control group not treated” value (CYP2D6) was 94.2%.

With `CC(C)n1c(=O)n(C)c2ccc(NN=C(C#N)C#N)cc21` [Compound 36, (3-isopropyl-1-methyl-2-oxo-2,3-dihydro-1H-benzo[d]imidazol-5-yl)carbonohydrazonoyl dicyanide] the “Tau BiFC in cells Response (% @10 μM)” value (tau protein) was −57%, the IC50 (tau protein) was 20 nM and the “CYP2D6 coenzyme activity (%) with respect to control group not treated” value (CYP2D6) was over 100%.

In the case of `Cn1ccc2c(NN=C(C#N)C#N)cccc2c1=O` [Compound 5, (2-methyl-1-oxo-1,2-dihydroisoquinolin-5-yl)carbonohydrazonoyl dicyanide], the “Tau BiFC in cells Response (% @10 μM)” value (tau protein) is reported as 0% and the “CYP2D6 coenzyme activity (%) with respect to control group not treated” value (CYP2D6) is reported as 93.1%.

In the case of `CC(C)n1ccc2ccc(NN=C(C#N)C#N)cc2c1=O` [Compound 3, (2-isopropyl-1-oxo-1,2-dihydroisoquinolin-7-yl)carbonohydrazonoyl dicyanide], the “Tau BiFC in cells Response (% @10 μM)” value (tau protein) is reported as 0%, the IC50 (tau protein) is reported as 200 nM and the “CYP2D6 coenzyme activity (%) with respect to control group not treated” value (CYP2D6) is reported as over 100%.

In the case of `Cn1c(=O)n(C)c2cc(NN=C(C#N)C#N)ccc21` [Compound 22, (1,3-dimethyl-2-oxo-2,3-dihydro-1H-benzo[d]imidazol-5-yl)carbonohydrazonoyl dicyanide], the “Tau BiFC in cells Response (% @10 μM)” value (tau protein) is reported as 0%, the IC50 (tau protein) is reported as 200 nM and the “CYP2D6 coenzyme activity (%) with respect to control group not treated” value (CYP2D6) is reported as over 100%.

With `CC(C)n1c(=O)sc2cc(NN=C(C#N)C#N)ccc21` [Compound 18, (3-isopropyl-2-oxo-2,3-dihydrobenzo[d]thiazol-6-yl)carbonohydrazonoyl dicyanide] the “Tau BiFC in cells Response (% @10 μM)” value (tau protein) was 0%, the IC50 (tau protein) was 40 nM and the “CYP2D6 coenzyme activity (%) with respect to control group not treated” value (CYP2D6) was 88.1%.
